Like-named read-outs stand apart in the source and are kept apart here.
Columns and labels:
[1] = biological target: T1, human CB2 (Homo sapiens, UniProt P34972); assay: CB2 binding, 3H-CP 55,940 displacement in CHO-hCB2 membranes; details: 0.2 nM 3H-CP 55,940
T1 construct: expressed in transfected cells; host or cells: CHO cells stably transformed with human CB2
Method: (§1) Membrane preparations were prepared from mouse brain to examine CB1 binding. For CB2 binding, membrane preparations were prepared from CHO cells stably transformed with human CB2.

[2] = biological target: T2, CB1 receptors (Mus musculus, UniProt P47746); type: biochemical
T2 construct: from tissue; host or cells: mouse brain membranes

[3] = system: CLP or Control (Sham) mice; assay: Renal arterial blood flow by Doppler flow probe; type: in vivo, mouse; details: CPL-treated mice
Excerpt: Under isoflurane anesthesia, the right kidney was exposed by flank incision and the renal artery and vein were carefully dissected from surrounding tissue with Dumont-5 forceps. The renal artery was isolated from the vein and a Transonic Systems (Ithaca, N.Y.) 0.5 PSL renal artery Doppler flow probe was positioned around the renal artery. The probe was calibrated in water using the zero and scale settings on the TS420 flowmeter (Transonic Systems). […] Body temperature was maintained at 36 to 37° C. with a heating lamp. Data were expressed in ml/min/g kidney weight.
Renal blood flow was measured essentially as described above in Example 10 following CPL surgery or control treatment (no surgery). CPL-treated mice were administered 10 mg/kg of resveratrol, 2.5 mg/kg of resveratrol-3-sulfate, or vehicle. […] In fact, resveratrol-3-sulfate produced the same degree of reversal at 25% of the dose of resveratrol.

[4] = biological target: T3, human UGT1A1 (Homo sapiens, UniProt P22309); assay: Glucuronidation by recombinant human UGT1A1 (activity and kinetic constants)
T3 sequence (P22309 26-533): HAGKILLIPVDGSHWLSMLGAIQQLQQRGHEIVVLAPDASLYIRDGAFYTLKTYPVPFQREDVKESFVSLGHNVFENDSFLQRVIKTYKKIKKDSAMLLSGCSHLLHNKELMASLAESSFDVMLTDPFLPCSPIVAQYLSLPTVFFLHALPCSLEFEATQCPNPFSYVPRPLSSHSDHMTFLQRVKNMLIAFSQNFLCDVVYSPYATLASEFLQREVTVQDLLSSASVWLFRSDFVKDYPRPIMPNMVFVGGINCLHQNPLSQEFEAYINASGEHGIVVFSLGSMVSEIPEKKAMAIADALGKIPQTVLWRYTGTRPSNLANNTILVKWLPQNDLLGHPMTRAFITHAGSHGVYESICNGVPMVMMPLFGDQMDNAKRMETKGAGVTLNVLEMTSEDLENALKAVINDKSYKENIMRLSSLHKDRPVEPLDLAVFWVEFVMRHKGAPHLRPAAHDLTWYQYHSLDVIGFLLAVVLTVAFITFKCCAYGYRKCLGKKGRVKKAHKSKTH
Method: (§2) Eight human recombinant UGT1A isoforms (UGT1A1, 1A3, 1A4, 1A6, 1A7, 1A8, 1A9, and 1A10; 5 μg) expressed as His-tag proteins in baculovirus-infected Sf9 insect cells and human liver microsomes (from one donor; HL2; 50 μg) and human intestinal microsomes (from two donors; HI36 and HI41; 50 μg) were evaluated for their ability to glucuronidate these four compounds. The concentrations of the substrate and co-substrate (i.e., UDP-GlcUA) were 250 μM and 4 mM, respectively. Glucuronidation products were analyzed by HPLC and LCMS/MS.
(§3) The kinetic constants of the glucuronidation reactions using recombinant human UGT1A1 and UGT1A10 were determined by measuring the enzyme activity in the presence of increasing concentrations of substrate (see FIG. 2).

[5] = system: CB1 receptors; type: biochemical, mouse; details: 10 μM compound, 30 min at 30° C.
[6] = biological target: T4, human UGT1A10 (Homo sapiens, UniProt Q9HAW8); assay: Glucuronidation by recombinant human UGT1A10 (activity and kinetic constants)
T4 sequence (Q9HAW8 26-530): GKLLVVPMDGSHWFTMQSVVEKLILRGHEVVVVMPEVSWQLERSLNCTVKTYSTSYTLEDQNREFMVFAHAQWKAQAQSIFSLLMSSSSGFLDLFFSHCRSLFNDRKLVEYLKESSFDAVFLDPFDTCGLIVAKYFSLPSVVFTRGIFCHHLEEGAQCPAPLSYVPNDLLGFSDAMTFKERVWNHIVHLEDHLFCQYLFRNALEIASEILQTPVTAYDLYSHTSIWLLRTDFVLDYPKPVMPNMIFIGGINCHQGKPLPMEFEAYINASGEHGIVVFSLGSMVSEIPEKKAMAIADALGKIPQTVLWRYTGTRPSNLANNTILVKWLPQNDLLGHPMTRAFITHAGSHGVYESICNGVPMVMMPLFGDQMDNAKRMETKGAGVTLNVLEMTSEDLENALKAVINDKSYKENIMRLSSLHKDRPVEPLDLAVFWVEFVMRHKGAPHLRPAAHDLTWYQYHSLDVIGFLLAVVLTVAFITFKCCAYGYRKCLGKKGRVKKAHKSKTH
Method: as §2, §3

[7] = biological target: T2, CB1 receptors; assay: CB1 binding, 3H-CP 55,940 displacement in mouse brain membranes; details: isoprenyl group and additional hydroxyl group
Method: as §1

[8] = system: human intestinal microsomes; assay: Glucuronidation by human intestinal microsomes; type: in vitro ADME; details: substrate 250 μM, UDP-GlcUA 4 mM
Method: Glucuronidation products were analyzed by HPLC and LCMS/MS.

T1 sequence (P34972 whole entry): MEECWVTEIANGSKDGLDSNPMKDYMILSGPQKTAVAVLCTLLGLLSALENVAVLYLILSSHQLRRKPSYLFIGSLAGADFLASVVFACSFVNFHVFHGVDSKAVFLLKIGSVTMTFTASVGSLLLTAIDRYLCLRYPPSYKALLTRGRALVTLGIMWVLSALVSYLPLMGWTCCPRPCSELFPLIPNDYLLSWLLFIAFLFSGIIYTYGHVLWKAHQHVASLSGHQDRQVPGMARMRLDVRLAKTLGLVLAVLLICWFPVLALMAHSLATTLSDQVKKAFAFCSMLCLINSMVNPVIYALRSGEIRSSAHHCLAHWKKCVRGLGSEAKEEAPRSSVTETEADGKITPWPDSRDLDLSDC
T2 sequence (P47746 whole entry): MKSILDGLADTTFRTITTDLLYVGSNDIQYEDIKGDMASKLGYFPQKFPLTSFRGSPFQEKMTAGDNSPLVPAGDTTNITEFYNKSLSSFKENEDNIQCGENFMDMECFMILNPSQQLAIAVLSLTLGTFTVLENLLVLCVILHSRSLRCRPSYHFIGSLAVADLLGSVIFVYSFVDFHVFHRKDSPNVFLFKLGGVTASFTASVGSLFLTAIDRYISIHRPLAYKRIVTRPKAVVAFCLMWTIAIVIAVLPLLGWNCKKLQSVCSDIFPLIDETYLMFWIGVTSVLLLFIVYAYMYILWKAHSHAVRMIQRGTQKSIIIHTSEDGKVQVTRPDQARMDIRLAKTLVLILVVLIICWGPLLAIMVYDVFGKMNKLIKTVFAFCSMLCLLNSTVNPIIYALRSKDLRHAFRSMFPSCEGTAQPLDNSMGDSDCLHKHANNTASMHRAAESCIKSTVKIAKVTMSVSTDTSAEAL

Work on O=C(O)[C@H]1O[C@@H](Oc2cc(O)cc(/C=C/c3ccc(O)c(O)c3)c2)[C@H](O)[C@@H](O)[C@@H]1O [3-Gluc-tPice] yielded a Ki [1] greater than 100 µM.

O=C(O)[C@H]1O[C@@H](Oc2ccc(/C=C/c3cc(O)cc(O)c3)cc2)[C@H](O)[C@@H](O)[C@@H]1O [4′-Gluc-rRes] showed a Ki [1] greater than 100 µM.

In the case of CCCCCCC(C)(C)c1ccc([C@@H]2C[C@H](O)CC[C@H]2CCCO)c(O)c1 [CP-55,940], the G-protein activity ([2]; 1 μM compound, 30 min at 30° C.) is reported as “stimulated”, the “maximal response produced by CP-55,940” value ([2]; CP-55,940 alone) is reported as 0.34±0.03 pmole/mg protein and the EC50 ([2]; CP-55,940 alone, read-out: ED50 required to activate G-proteins) is reported as 0.0043 µM.

For O=S(=O)(O)Oc1cc(O)cc(C=Cc2ccc(O)cc2)c1 [resveratrol-3-sulfate], the “dose producing the same degree of reversal, relative to resveratrol” value [3] was 25 % of the dose of resveratrol and the renal blood flow ([3]; 2.5 mg/kg (Example 15)) was “increased blood flow”.

With CC(C)/C=C/c1c(O)cc(/C=C/c2ccc(O)cc2)cc1O [tA3, trans-arachidin-3] the Kinetics ([4]; product 3-glucuronide (3G)) was “M-M”, the Kinetics ([4]; product 4′-glucuronide (4′G)) was “M-M” and the “basal G-protein activity” value [5] was “little effect”. For the same compound, the EC50 ([2]; in the presence of 30 μM tA-3, read-out: ED50 of CP-55,940 required to activate G-proteins) was 0.127 µM, the “kinetics of 4′-O-Gluc formation by UGT1A10” value [6] was “substrate inhibition kinetics” and the Kinetics ([6]; product 4′-glucuronide (4′G)) was “USI”.

In the case of Oc1cc(O)cc(/C=C/c2ccc(O)c(O)c2)c1 [tPice, trans-piceatannol], the Kinetics ([4]; product 3-glucuronide (3G)) is reported as “M-M”, the Kinetics ([4]; product 4′-glucuronide (4′G)) is reported as “M-M” and the “basal G-protein activity” value [5] is reported as “markedly reduced”. For the same compound, the Kinetics ([6]; product 3-glucuronide (3G)) was “M-M”, the Kinetics ([6]; product 4′-glucuronide (4′G)) was “Hill” and the “n (Hill coeff)” value ([6]; product 4′-glucuronide (4′G)) was 1.7. For the same compound, the Ki [1] was 114 ± 7.8 µM.

For trans-arachidin-1 [tA1], the “basal G-protein activity” value [5] was “markedly reduced”, the “maximal response produced by CP-55,940” value ([2]; in the presence of 10 μM tA-1) was 0.22±0.04 pmole/mg protein and the EC50 ([2]; in the presence of 10 μM tA-1, read-out: ED50 of CP-55,940 required to activate G-proteins) was 0.028 µM. The “enhancement of binding affinity for CB1” value [7] was 2 fold, the “kinetics of 4′-O-Gluc formation by UGT1A10” value [6] was “substrate inhibition kinetics” and the Kinetics ([6]; product 4′-glucuronide (4′G)) was “USI”. The “production of 3G glucuronide by HIM” value [8] was “large amount”.
